Measurements published in article PMC11266668, “Unraveling the mechanism of small molecule induced activation of Staphylococcus aureus signal peptidase IB” (Communications Biology, 2024).
≈ marks a conversion by molar mass, not a printed value. Where “and” joins values, the source holds several entries; their conditions need not be identical. Identical values can stand only once.

Columns and labels:
wt SpsB [1] = molecular target: T1, wt SpsB (Staphylococcus aureus, UniProt P0A070); settings: cited from earlier work
T1 construct: recombinantly expressed full-length S. aureus SpsB (wt) or mutants; made in house; host or cells: E. coli BL21(DE3)pLysS, membrane fraction

wt SpsB [2] = molecular target: T1, wt SpsB; assay: FRET-based signal peptidase assay with membrane-bound SpsB (wt); assay type: biochemical, S. aureus
Procedure: For preparation of E. coli membrane fractions harboring overexpressed S. aureus SpsB, E. coli BL21(DE3) pLysS cells harboring pET-55-DEST-fl-SpsB or respective mutant plasmids (F67A, Y75A, F158A, Q165A, F67A-Y75A, F67A-F158A, Y75A-F158A, F67A-Y75A-F158A) were grown in LB medium (supplemented with Ampicillin (100 µg/mL) and Chloramphenicol (34 µg/mL)) at 37°C (200 rpm) to OD600 ≈ 0.6 and protein overexpression was induced by the addition of isopropyl-1-thio-β-galactopyranoside (IPTG, 0.5 mM). After incubation (22 °C, 200 rpm, 3 h), cells were harvested by centrifugation (6000 × g, 4 °C, 10 min) and subsequently washed with PBS. The cell pellet was resuspended in 5 mL Tris-HCl buffer (50 mM, pH = 7.5) and lysed using a bead beater homogenizer (3 cycles: 5500 rpm for 45 s, 30 s cooling; Precellys Ceramic Kit CK01L, 7.0 mL tubes; Precellys 24 Homogenizer, Bertin Technologies). The lysate was centrifuged (12,000 × g, 4 °C, 10 min) to remove intact cells and debris. Membranes were collected from supernatant (39,000 × g, 4 °C, 75 min) and resuspended in ice-cold sodium phosphate buffer (50 mM, pH 7.5). Protein concentration was measured using the Pierce BCA Protein assay kit (Thermo Fisher Scientific, Pierce Biotechnology) and snap-frozen aliquots were stored at −80 °C.
Signal cleavage activities of recombinantly expressed full-length S. aureus SpsB (wt) or mutants (F67A, Y75A, F158A, Q165A, F67A-Y75A, F67A-F158A, Y75A-F158A, F67A-Y75A-F158A) in E. coli membranes were measured using a Förster Resonance Energy Transfer (FRET) assay as previously described[20],[36].
A synthetic peptide substrate based on SceD modified by 4-(4- dimethylaminophenylazo)benzoic (DABCYL) acid and 5-((2-aminoethyl)amino)-1- naphthalenesulfonic acid (EDANS) was used (DABCYL-[…]-EDANS, AnaSpec) as FRET substrate. Assays were performed with overexpressed wildtype SpsB (wt) or mutant (F67A, Y75A, F158A, Q165A, F67A-Y75A, F67A-F158A, Y75A-F158A, F67A-Y75A-F158A) in E. coli membranes. As controls for background activity, respective E. coli membranes without IPTG induction were used (see Experimental procedure “Preparation of E. coli membrane (control) fractions. Membranes containing recombinant wildtype SpsB or mutant (50 µg/mL membrane concentration, 100 µL/well final volume, sodium phosphate buffer, 50 mM, pH 7.5, addition of detergent if indicated; final concentrations in buffer: 0.1% CHAPS, 0.001% NP-40 or 0.1% Tween) were pre-treated with PK150, Arylomycin A4 or DMSO as a control (final concentration 1%) at 37 °C for 5 min. After addition of FRET substrate (10 µM final substrate concentration; final DMF concentration from substrate stock 1%), fluorescence turnover was monitored by an Infinite™ M Nano Tecan 200Pro reader (340 nm excitation and 510 nm emission wavelengths, fluorescence top reading mode) at 37 °C for at least 2 h.
The assay was performed in technical triplicates for at least three biologically independent experiments (n ≥ 3). Significance of cleavage activity was determined via a two-tailed Students t-test for comparison of membranes treated with DMSO to PK150.

SpsB Q165A mutant = molecular target: T2, SpsB Q165A mutant (Staphylococcus aureus, UniProt P0A070, Q165A); assay: FRET-based signal peptidase assay with membrane-bound SpsB, Q165A mutant; assay type: biochemical, S. aureus; settings: 10 µM; relative to DMSO
T2 construct: recombinantly expressed full-length S. aureus SpsB (wt) or mutants; made in house; host or cells: E. coli BL21(DE3)pLysS, membrane fraction
T2 sequence (P0A070 1-191 Q165A): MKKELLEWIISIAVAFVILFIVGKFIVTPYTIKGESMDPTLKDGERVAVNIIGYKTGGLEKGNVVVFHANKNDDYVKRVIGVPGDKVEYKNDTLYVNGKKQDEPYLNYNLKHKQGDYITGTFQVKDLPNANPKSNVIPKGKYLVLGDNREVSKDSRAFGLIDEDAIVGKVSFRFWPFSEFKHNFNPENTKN
Procedure: Cloning of full-length SpsB (fl-SpsB) was performed using the Invitrogen Gateway Technology in previous works by Le et al.. fl-SpsB was cloned into the destination vector pET-55-DEST (Novagen) and transformed into chemically competent E. coli BL21(DE3)pLysS cells (Promega) to prevent leaky protein overexpression. Plasmid DNA of wildtype SpsB pET-55-DEST-fl-SpsB was purified using a plasmid Miniprep Kit (peqGOLD Plasmid Miniprep Kit II, VWR Peqlab) according to the manufacturer’s instructions and used as template for all single point mutations (F67A, Y75A, F158A, Q165A). […]
For preparation of E. coli membrane fractions harboring overexpressed S. aureus SpsB, E. coli BL21(DE3) pLysS cells harboring pET-55-DEST-fl-SpsB or respective mutant plasmids (F67A, Y75A, F158A, Q165A, F67A-Y75A, F67A-F158A, Y75A-F158A, F67A-Y75A-F158A) were grown in LB medium (supplemented with Ampicillin (100 µg/mL) and Chloramphenicol (34 µg/mL)) at 37°C (200 rpm) to OD600 ≈ 0.6 and protein overexpression was induced by the addition of isopropyl-1-thio-β-galactopyranoside (IPTG, 0.5 mM). […] Protein concentration was measured using the Pierce BCA Protein assay kit (Thermo Fisher Scientific, Pierce Biotechnology) and snap-frozen aliquots were stored at −80 °C. […]

S. aureus NCTC 8325 = test system: S. aureus NCTC 8325; set-up: method as in Le et al., Nat Chem. 2020; settings: ref Le et al., Nat Chem. 2020; cited from earlier work

Compound	overactivation compared to DMSO (wt SpsB [1]; 50 µM compound concentration, ref Le et al., Nat Chem. 2020) [%]	overactivation of SpsB (wt SpsB [1])	allosteric stimulation of SpsB activity (wt SpsB [2]; 10 µM in E. coli induced SpsB membranes) [%]	elevated activity in wildtype SpsB (wt SpsB [2]; 10 µM, relative to DMSO) [fold]	activation of wt SpsB in presence of detergents (wt SpsB [2]; 0.01% Tween, 0.001% NP-40, 0.1% CHAPS (<cmc), PK150 10 µM)	activity at 0.195 µM (wt SpsB [2]; PK150 0.195uM, replicates, read-out: wt PK150 (normalized activity)) [%]	activity at 0.39 µM (wt SpsB [2]; PK150 0.39uM, replicates, read-out: wt PK150 (normalized activity)) [%]	activity at 1.5625 µM (wt SpsB [2]; PK150 1.5625uM, replicates, read-out: wt PK150 (normalized activity)) [%]	wt PK150 10 µM norm. value (wt SpsB [2]; PK150 10 µM, substrate cleavage rate normalized to DMSO (100), single biological replicates)	overactivation at higher compound concentrations (wt SpsB [2]; higher compound concentrations (Figure 3a))	elevated activity in Q165A mutant (SpsB Q165A mutant) [fold]	MIC (S. aureus NCTC 8325) [µM]
O=C(Nc1ccc2c(c1)OC(F)(F)O2)Nc1ccc(Cl)c(C(F)(F)F)c1 [PK150, (4-Chloro-3-(trifluoromethyl)phenyl)-3-(2,2-difluorobenzo[d][1,3]dioxol-5-yl)urea]	250	up to 3 fold	170	1.7	Activation of wt SpsB with PK150 could still be shown for all detergents	111	127	131	153.034 and 181.137 and 173.665 and 173.73 and 163.958 and 182.132	up to 250%	1.7	0.3 (≈ 0.118 µg/mL)
C#CCCC1(CCOC(=O)c2ccc(NC(=O)Nc3ccc(Cl)c(C(F)(F)F)c3)cc2)N=N1 [PK150-P, 2-(3-(But-3-inyl)-3H-diazirin-3-yl)ethyl4-(3-(4-Chloro-3trifluoromethylphenyl)ureido) benzoate]												1.0 (≈ 0.479 µg/mL)
